We go through three compounds from patent publication US20120329854A1, “Methods and Compounds for the Diagnosis and Treatment for Cancer” (UNIVERSITÄTSKLINIKUM FREIBURG, priority 2009, published 2012).

Entries after “also recorded” stand apart in the source; their conditions may differ.

Type in all cases: cell-based, human
Data set [1] relates to H3T6ph at the AREs of the KLK2 and FKBP5 promoters. Description: ChIP with α-H3T6ph antibody in LNCaP cells. The conditions noted are these: for androgen-induced phosphorylation of H3T6 at the AREs of the KLK2 and FKBP5 promoters upon knockdown: siRNA transfection three days before harvesting, 1×10^−8 M R1881, versus control siRNA. The protocol:
(§1) ChIP and Re-ChIP experiments were performed as described^3. LNCaP cells were cultured for 15 min (ChIP) or 210 min (Re-ChIP) in the presence or absence of 1×10^−8M R1881 as indicated. Three days before harvesting, cells were transfected with siRNA (control for PKCβI: 5′-[…]-3′(SEQ ID NO 3); PKCβI: 5′-[…]-3′ (SEQ ID NO 4) (FIG. 3 b, c, f-i); control for PRK1: 5′-[…]-3′ (SEQ ID NO 14); PRK1: 5′-[…]-3′ (SEQ ID NO: 15) (FIG. 3 d, e); Invitrogen) using RNAifect (Qiagen) following the manufacturer's instructions. Immunoprecipitation was performed with specific antibodies (α-AR #06-680 lot 33529 (Upstate Biotechnology), α-H3K4me1 #ab8895 lot 535654, α-H3T6ph #ab14102 lot 481643, α-H3 #ab1791 lot 172452, α-PKCβI S660ph #ab23513 lot 596904 (Abcam), α-PKCβI (C-16) #sc-209 lot 481643, (Santa Cruz), α-H3K4me2 #cs-035-100 lot A391001 (Diagenode), α-PRK1^3, and α-LSD1^2) on protein A-Sepharose 4B (GE-Healthcare). For PCR, 2 μl out of 50 μl DNA extract was used. PCR primers for FKBP5 (+351/+443), KLK2 (−343/−90), SCN1A, SCN2A, GAPDH, and U6 were described previously^1, 2, 6, 11.

For data set [2], the system named is H3K4me2 and H3K4me1 at the KLK2 and FKBP5 promoters. The experiment in a line: ChIP with α-H3K4me2 and α-H3K4me1 antibodies in LNCaP cells. The protocol: as §1
A further data set deals with AR. The experiment in a line: Western blot analysis of endogenous AR in LNCaP cells. The settings on record: siRNA transfection (FIG. 3c, 3e right panels). Here is the method: Experiments were performed as described^2. Western blots were decorated as indicated.
(In general: A western blot detects proteins with antibodies after separation by electrophoresis.)

Data set [3] relates to AR, LSD1, PKCβI on AR-regulated genes. The experiment in a line: ChIP for occupancy of AR, LSD1 and PKCβI on AR target promoters in LNCaP cells. The protocol: as §1
Data set [4] relates to PKCβI S660ph at the KLK2 and FKBP5 promoters. Description: ChIP with α-PKCβI S660ph antibody in LNCaP cells. The protocol: as §1

Turning to “5′-CAUUGUCCUCGUAAGAGAUGCUAAA-3′ (listed as RNA, chemistry not given here) [siRNA directed against PKCβI]”, the “androgen-induced phosphorylation of H3T6 at the AREs of the KLK2 and FKBP5 promoters upon knockdown” value in data set [1] is on record as “blocked; also recorded: blunts”. In addition, the “H3K4me2 and H3K4me1 levels at the KLK2 and FKBP5 promoters upon knockdown” value is “Elevated levels” in data set [2] (in the absence of R1881 (FIG. 3f, g)); “reduces H3K4me2 and H3K4me1 levels to those observed in the absence of R1881” in data set [2] (in the presence of R1881 (FIG. 3f, g)). Besides, the “levels of endogenous AR upon knockdown” value with AR is “does not affect”. Also, in data set [3] (siRNA transfection (FIG. 3b, c)), the “ligand-dependent recruitment of AR and presence of LSD1 on AR-regulated genes upon knockdown” value is listed as “does neither affect”.
Consider “5′-GAACAUGAUCCAGACCUACAGCAAU-3′ (listed as RNA, chemistry not given here) [siRNA directed against PRK1, siRNA against Protein-kinase-C-related kinase 1 (PRK1), Invitrogen, reference compound]”, for which the “androgen-induced phosphorylation of H3T6 at the AREs of the KLK2 and FKBP5 promoters upon knockdown” value in data set [1] is “abolished”. In addition, in the data set on AR, the “levels of endogenous AR upon knockdown” value is listed as “does neither affect”. Further, in data set [4] (siRNA transfection, with R1881 (FIG. 3d, e)), the “ligand-dependent activation of PKCβI (S660ph) upon knockdown” value is “blocked”. The “presence of PKCβI on AR target promoters upon knockdown” value in data set [3] (siRNA transfection (FIG. 3d, e)) was “does neither affect”.
As for `C[C@]1(O)CC[C@H]2[C@@H]3CCC4=CC(=O)CCC4=C3C=C[C@@]21C` [R1881, reference compound], the “phosphorylation of H3T6 at the AREs of the KLK2 and FKBP5 promoters on addition of ligand” value in data set [1] (1×10^−8 M R1881 versus absence of ligand (FIG. 3b, c)) is on record as “results in phosphorylation of H3T6”. Besides, the “levels of H3K4me2 and H3K4me1 at the KLK2 and FKBP5 promoters on addition of ligand” value in data set [2] (R1881 versus absence of ligand (FIG. 3f, g)) is “increased”. For the same compound, the “phosphorylation at S660 of PKCβI at the KLK2 and FKBP5 promoters on addition of ligand” value in data set [4] (R1881 versus absence of ligand (FIG. 3b, c)) is recorded as “androgen-induced phosphorylation at 5660 of PKCβI”.
